Assay results taken from the supplement of paper PMC11208160.

Assay: recombinant barcode read abundance after kanamycin selection (control-corrected) (log10(CPM+1)); higher = more efficient recombination; sequences stand for … in AGTGCAGAGAAAATCGGCCAGTTTTCTCTGCCTGCAGTCCGCATGCCGT…AGATTTATGCAGCGGACTGCCTTTCTCCCAAAGTGATAAACCGGACAGTATCATGGACCGGTTTTCCCGGTAATCCGTATTTGCAAGGTTGGTTTCACT; site = the 11-nt target
In short: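 A promoter, a target, a barcode and the first 104 bridge RNA bases under J23119 made up each oligo. Oligos were Gibson-cloned into a vector bearing the other 73 bp and a T7-inducible recombinase, then co-electroporated into E. coli with a donor plasmid and plated in duplicate on chloramphenicol/ampicillin LB agar (control) or chloramphenicol/ampicillin/kanamycin with 0.1 mM IPTG. Recombination efficiency is the averaged, control-corrected counts per million of recombinant-junction barcodes. Reported values are log10(CPM+1).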
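Note: IS621 recombinase and bridge RNA in Escherichia coli cells.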

Sequence	recombinant barcode read abundance (log10)
TCGAAACCTTGGGTTCTAACCTGTTGCCT (site TCGAAACCTAG)	0.625
TCGAAACCTTGGGTTCTAACCTGTTGCCT (site TCGAACCCTAG)	0.0112
TCGAAACCTTGGGTTCTAACCTGTTGCCT (site TCGAAGCCTAG)	0.132
TCGAAACCTTGGGTTCTAACCTGTTGCCT (site TCGAATCCTAG)	0.0362
TCGAAGACTTGGGTTCTAACCTGTTGCCA (site CCGAAGACTAG)	0.14
TCGAAGACTTGGGTTCTAACCTGTTGCCA (site TCGAAGACTTG)	0.177
TCGAGTACTTGGGTTCTAACCTGTTGCCT (site TCGAGTACTAG)	0.274
TCGAGTACTTGGGTTCTAACCTGTTGCCT (site TCGAGTCCTAG)	0.168
TCGAGTACTTGGGTTCTAACCTGTTGCCT (site TCGAGTGCTAG)	0.034
TCGAGTACTTGGGTTCTAACCTGTTGCCT (site TCGAGTTCTAG)	0.404
TCGATGTCTTGGGTTCTAACCTGTTGCCT (site TCGAATTCTAG)	0.174
TCGATGTCTTGGGTTCTAACCTGTTGCCT (site TCGATGTCTAG)	0.706
TCGCAAGCTTGGGTTCTAACCTGTTGCCT (site TCGCAAGCTAG)	0.559
TCGCAAGCTTGGGTTCTAACCTGTTGCCT (site TCTCCAGCTAG)	0.43
TCGCACCCTTGGGTTCTAACCTGTTGCGA (site TCGAACCCTTC)	1.28
TCGCACCCTTGGGTTCTAACCTGTTGCGA (site TCGCACCCTTC)	0.571
TCGCACCCTTGGGTTCTAACCTGTTGCGA (site TCGGACCCTTC)	0.369
TCGCACCCTTGGGTTCTAACCTGTTGCGA (site TCGTACCCTTC)	0.514
TCGCACGCTTGGGTTCTAACCTGTTGCCT (site TCGCACGCTAG)	0.205
TCGCACGCTTGGGTTCTAACCTGTTGCCT (site TCTCACGCTAG)	0.541
TCGCACTCTTGGGTTCTAACCTGTTGCCT (site TCACACTCTAG)	1.22
TCGCACTCTTGGGTTCTAACCTGTTGCCT (site TCCCACTCTAG)	0.22

Sequence	recombinant barcode read abundance (log10)
TCGCACTCTTGGGTTCTAACCTGTTGCCT (site TCGCACTCTAG)	0.0694
TCGCACTCTTGGGTTCTAACCTGTTGCCT (site TCTCACTCTAG)	0.117
TCGCACTCTTGGGTTCTAACCTGTTGCTA (site TCGCACACTTA)	0.262
TCGCACTCTTGGGTTCTAACCTGTTGCTA (site TCGCACTCTTA)	0.911
TCGCCTACTTGGGTTCTAACCTGTTGCCT (site TCGCCTACTAG)	0.049
TCGCCTACTTGGGTTCTAACCTGTTGCCT (site TCGCCTGCTAG)	0.396
TCGCCTTCTTGGGTTCTAACCTGTTGCCT (site TAGCCTTCTAG)	0.482
TCGCCTTCTTGGGTTCTAACCTGTTGCCT (site TCGCCTTCTAG)	0.364
TCGCCTTCTTGGGTTCTAACCTGTTGCCT (site TGGCCTTCTAG)	0.654
TCGCCTTCTTGGGTTCTAACCTGTTGCCT (site TTGCCTTCTAG)	0.0934
TCGCGGCCTTGGGTTCTAACCTGTTGCCT (site ACGCGGCCTAG)	0.153
TCGCGGCCTTGGGTTCTAACCTGTTGCCT (site CCGCGGCCTAG)	0.105
TCGCGGCCTTGGGTTCTAACCTGTTGCCT (site GCGCGGCCTAG)	0.1
TCGCGGCCTTGGGTTCTAACCTGTTGCCT (site TCGCGGCCTAG)	0.0408
TCGCGTCCTTGGGTTCTAACCTGTTGCCG (site ACGCGTCCTCG)	0.116
TCGCGTCCTTGGGTTCTAACCTGTTGCCG (site TCGCGTCCTCG)	1.41
TCGCTAGCTTGGGTTCTAACCTGTTGCGG (site CCGCTACCTCC)	1.83
TCGCTAGCTTGGGTTCTAACCTGTTGCGG (site TCGCTAGCTCC)	0.657
TCGGACACTTGGGTTCTAACCTGTTGCCA (site TCGGACACTTG)	1.89
TCGGACACTTGGGTTCTAACCTGTTGCCA (site TGGGACTCTTG)	0.0505
TCGGAGGCTTGGGTTCTAACCTGTTGCTG (site TCAGAGGCTCA)	0.774
TCGGAGGCTTGGGTTCTAACCTGTTGCTG (site TCCGAGGCTCA)	0.325

Sequence	recombinant barcode read abundance (log10)
TCGGAGGCTTGGGTTCTAACCTGTTGCTG (site TCGGAGGCTCA)	0.442
TCGGAGGCTTGGGTTCTAACCTGTTGCTG (site TCTGAGGCTCA)	0.374
TCGGAGTCTTGGGTTCTAACCTGTTGCCT (site TCGGAGTCTAA)	0.128
TCGGAGTCTTGGGTTCTAACCTGTTGCCT (site TCGGAGTCTAC)	1.06
TCGGAGTCTTGGGTTCTAACCTGTTGCCT (site TCGGAGTCTAG)	2.23
TCGGAGTCTTGGGTTCTAACCTGTTGCCT (site TCGGAGTCTAT)	0.503
TCGGATACTTGGGTTCTAACCTGTTGCCA (site TAGGACACTTG)	0.0618
TCGGATACTTGGGTTCTAACCTGTTGCCA (site TCGGATACTTG)	0.456
TCGGCCTCTTGGGTTCTAACCTGTTGCTA (site CGTCTAGCTAT)	0.054
TCGGCCTCTTGGGTTCTAACCTGTTGCTA (site TCGGCCTCTTA)	0.877
TCGGCGACTTGGGTTCTAACCTGTTGCCT (site TCAGCGACTAG)	0.11
TCGGCGACTTGGGTTCTAACCTGTTGCCT (site TCCGCGACTAG)	0.0866
TCGGCGACTTGGGTTCTAACCTGTTGCCT (site TCGGCGACTAG)	0.0143
TCGGCGACTTGGGTTCTAACCTGTTGCCT (site TCTGCGACTAG)	0.291
TCGGGAACTTGGGTTCTAACCTGTTGCCT (site TCGCGAACTAG)	0.502
TCGGGAACTTGGGTTCTAACCTGTTGCCT (site TCGGGAACTAG)	0.34
TCGGGATCTTGGGTTCTAACCTGTTGCCT (site ACGGGATCTAG)	0.365
TCGGGATCTTGGGTTCTAACCTGTTGCCT (site CCGGGATCTAG)	0.184
TCGGGATCTTGGGTTCTAACCTGTTGCCT (site GCGGGATCTAG)	0.0188
TCGGGATCTTGGGTTCTAACCTGTTGCCT (site TCGGGATCTAG)	1.05
TCGGTGACTTGGGTTCTAACCTGTTGCCT (site ACGGTGACTAG)	0.658
TCGGTGACTTGGGTTCTAACCTGTTGCCT (site CCGGTGACTAG)	0.0364

Sequence	recombinant barcode read abundance (log10)
TCGGTGACTTGGGTTCTAACCTGTTGCCT (site GCGGTGACTAG)	0.0708
TCGGTGACTTGGGTTCTAACCTGTTGCCT (site TCGGTGACTAG)	0.87
TCGTACCCTTGGGTTCTAACCTGTTGCGA (site TCGAACCCTTC)	0.256
TCGTACCCTTGGGTTCTAACCTGTTGCGA (site TCGCACCCTTC)	0.0875
TCGTACCCTTGGGTTCTAACCTGTTGCGA (site TCGGACCCTTC)	0.0548
TCGTACCCTTGGGTTCTAACCTGTTGCGA (site TCGTACCCTTC)	0.617
TCGTCTCCTTGGGTTCTAACCTGTTGCTT (site TCGTCTCCTAA)	0
TCGTCTCCTTGGGTTCTAACCTGTTGCTT (site TTATCTCCTAA)	0.386
TCGTGCACTTGGGTTCTAACCTGTTGCCT (site TCGTGCACTAG)	0.215
TCGTGCACTTGGGTTCTAACCTGTTGCCT (site TCGTGCCCTAG)	0.448
TCGTGCACTTGGGTTCTAACCTGTTGCCT (site TCGTGCGCTAG)	0.0852
TCGTGCACTTGGGTTCTAACCTGTTGCCT (site TCGTGCTCTAG)	0.178
TCGTGCCCTTGGGTTCTAACCTGTTGCTT (site TCGTGCCCTAA)	0.0384
TCGTGCCCTTGGGTTCTAACCTGTTGCTT (site TCGTGCCCTCA)	1.5
TCGTGCTCTTGGGTTCTAACCTGTTGCCT (site TCGTGCACTAG)	0.0667
TCGTGCTCTTGGGTTCTAACCTGTTGCCT (site TCGTGCCCTAG)	0.282
TCGTGCTCTTGGGTTCTAACCTGTTGCCT (site TCGTGCGCTAG)	0.193
TCGTGCTCTTGGGTTCTAACCTGTTGCCT (site TCGTGCTCTAG)	0.0894
TCTAACCCTTGGGTTCTAACCTGTTGCAT (site TCTAAACCTAT)	0.0654
TCTAACCCTTGGGTTCTAACCTGTTGCAT (site TCTAACCCTAT)	0.251
